{"source": "patent US8937039B2", "about": "“Peptide-based peroxidase inhibitors and methods of using same” (The Medical College of Wisconsin, Inc., priority 2009, dated 2015)", "key": {"[1]": {"test_system": "OVA-sensitized C57BL/6J mice", "test": "OVA-sensitized murine model of asthma (lung histology)", "assay_type": "in vivo, mouse", "conditions": "KYC 0.3 mg/kg every other day, 5 treatments", "source_text": "Murine Model of Experimentally-Induced Asthma. C57BL/6J mice (12-14 wk old) from Jackson Laboratory (Bar Harbor, Me.) were housed in sterile autoclavable microisolation cages and fed standard laboratory mouse chow and water ad libitum. All protocols were approved by the Institutional Animal Care and Use Committee (IACUC) of the Medical College of Wisconsin.\nC57BL/6J mice were divided into three groups; a control group (Control), an ovalbumin (OVA)-sensitized group and an OVA-sensitized group treated with KYC. OVA sensitization was achieved using a modification of a protocol previously described by de Siqueira et al^15 (FIG. 1). […] When mice inhale aerosolized OVA, robust allergic responses are routinely observed.\nBriefly, on day one, mice were anesthetized (halothane; Halocarbon Laboratories, River Edge, N.J.) and a heat-denatured OVA fragment (˜80 mg, 5×2×2 mm) was implanted subcutaneously in the dorsal aspect of the neck. The incision was closed with stainless steel clips and the mouse was allowed to recover. Implantation of the heat-denatured OVA fragment initiates sensitization. On day fifteen, the implanted mice were exposed to aerosolized OVA (6% in PBS) for 30 minutes every other day for ten days. Twenty-four hours after the last OVA challenge, the mice were deeply anesthetized (halothane), sacrificed by exsanguination and the lungs removed for analysis. […]"}, "C57BL/6J mice": {"test_system": "C57BL/6J mice", "test": "Pulmonary retention of Q-dot labeled EMPs (acute lung injury)", "assay_type": "in vivo, mouse", "conditions": "pretreatment and treatment with KYC", "method": "KYC Inhibits Acute Lung Injury. Inflammation and sepsis induce the release of endothelial cell microparticles (EMPs). Increased production of EMPs is hypothesized to play a causal role in the mechanisms mediating acute lung injury (ALI). To test this hypothesis, the inventors incubated human umbilical vein endothelial cells with PAI-1, which is well-recognized for inducing endothelial cells to generate EMPs. The EMPs were collected by ultracentrifugation, resuspended in physiological saline solution and then labeled with Q-dots. The Q-dot labeled EMPs were counted and then injected into C57BL/6J mice to achieve a final concentration of 100,000 EMPs/mL of blood. Mice were pretreated with phosphate buffered saline (FIG. 6) or KYC and then were injected with Q-dot labeled EMPs alone or Q-dot labeled EMPs plus KYC (FIG. 6)."}, "lung cancer mice": {"test_system": "lung cancer mice", "test": "BHT-treated lung cancer mice (BALF activities, tumor number)", "assay_type": "in vivo, mouse", "method": "Inhibiting MPO decreases PMN degranulation in lung cancer mice. PMNs are considered to play a causal role in initiating tumor formation. Effects of KYC on PMN recruitment and tumor formation in lung cancer mice were determined. Briefly, mice were treated with BHT (single dose: 300 mg/kg) and KYC (0.3 mg/kg/d)."}, "MPO": {"biological_target": "T1, MPO (Homo sapiens, UniProt P05164)", "T1 sequence (P05164 49-745)": "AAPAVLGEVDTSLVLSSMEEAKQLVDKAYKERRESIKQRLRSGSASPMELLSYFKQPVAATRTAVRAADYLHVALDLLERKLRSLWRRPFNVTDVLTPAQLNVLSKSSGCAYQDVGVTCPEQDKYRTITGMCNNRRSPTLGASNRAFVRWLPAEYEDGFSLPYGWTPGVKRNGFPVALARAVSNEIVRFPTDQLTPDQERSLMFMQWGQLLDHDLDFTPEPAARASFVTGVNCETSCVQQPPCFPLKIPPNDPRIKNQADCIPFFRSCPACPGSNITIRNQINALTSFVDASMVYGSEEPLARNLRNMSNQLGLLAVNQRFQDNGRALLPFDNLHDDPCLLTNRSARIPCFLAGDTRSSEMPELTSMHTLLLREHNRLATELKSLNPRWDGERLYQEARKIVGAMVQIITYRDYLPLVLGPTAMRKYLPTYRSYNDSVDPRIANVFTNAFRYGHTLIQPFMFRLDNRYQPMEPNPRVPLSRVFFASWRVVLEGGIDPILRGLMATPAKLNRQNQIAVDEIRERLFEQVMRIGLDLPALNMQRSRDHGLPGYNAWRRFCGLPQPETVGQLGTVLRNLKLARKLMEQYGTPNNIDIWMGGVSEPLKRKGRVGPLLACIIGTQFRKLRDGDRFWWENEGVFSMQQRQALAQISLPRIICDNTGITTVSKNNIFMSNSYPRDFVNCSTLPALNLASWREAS", "test": "MPO-mediated nitration of BSA (western blot for nitrotyrosine)", "assay_type": "biochemical", "design": "purchased Lee Biosolutions (St. Louis, Mo.)", "conditions": "for MPO-mediated BSA nitration (in words): H2O2 100 μM, nitrite 100 μM", "method": "MPO-mediated Nitration of Bovine Serum Albumin (BSA). BSA (0.5 mg/mL) was incubated with MPO (20 nM), H2O2 (100 μM), nitrite (100 μM) and increasing concentrations of KYC in phosphate buffer (100 mM, pH 7.4) containing DTPA (100 μM) for 30 min. Reactions were stopped by addition of catalase. Nitrotyrosine formation was assessed by western blot analysis.\nMPO-mediated Nitration of Bovine Serum Albumin (BSA): BSA (0.5 mg/mL) was incubated with MPO (20 nM), H2O2 (25 μM), NaNO2 (50 μM) and increasing concentrations of KYC in phosphate buffer (100 mM, pH 7.4) containing DTPA (100 μM) for 30 min. Reactions were halted by addition of catalase (2,000 units/mL). NO2Tyr formation was assessed by western blot analysis with an anti-NO2Tyr rabbit polyclonal antibody (EMD, Gibbstown, N.J.)."}, "[2]": {"conditions": "BHT 300 mg/kg single dose, KYC 0.3 mg/kg/d, after 3 days"}}, "note": "Residues, ends and D or L forms follow the SMILES beside them."}
{"smiles": "CC(=O)N[C@@H](CCCCN)C(=O)N[C@@H](Cc1ccc(O)cc1)C(=O)N[C@@H](CS)C(N)=O", "note": "[KYC, N-acetyl Lysyltyrosylcysteine Amide] (Ac-Lys-Tyr-Cys-NH2)", "values": [{"measurement": "Eosinophil infiltration in the lungs (in words)", "setting": "[1]; H&E", "result": "markedly reduce eosinophil infiltration to essentially control levels"}, {"measurement": "Collagen deposition in the lungs (in words)", "setting": "[1]; trichrome", "result": "markedly reduces collagen deposition to control levels"}, {"measurement": "Pulmonary retention of Q-dot labeled EMPs (in words)", "setting": "C57BL/6J mice", "result": "dramatically decreases"}, {"measurement": "Decrease of the number of tumors vs untreated mice", "setting": "lung cancer mice; 6 weeks of KYC treatment, p=0.02", "result": "~50", "unit": "%"}, {"measurement": "Elastase activity in BALF (in words)", "setting": "lung cancer mice; [2]", "result": "significantly decreased"}, {"measurement": "MPO activity in BALF (in words)", "setting": "lung cancer mice; [2]", "result": "significantly decreased"}, {"measurement": "PMN number in BALF (in words)", "setting": "lung cancer mice; [2]", "result": "did not reduce"}, {"measurement": "inhibition at 12.5 µM", "setting": "MPO; 12.5 μM KYC, H2O2 25 μM, NaNO2 50 μM, read-out: Inhibition of NO2Tyr formation in BSA", "result": 50, "unit": "%"}, {"measurement": "MPO-mediated BSA nitration (in words)", "setting": "MPO; 30 μM KYC", "result": "inhibits"}, {"measurement": "NO2Tyr formation in BSA (in words)", "setting": "MPO; 50 μM KYC, H2O2 25 μM, NaNO2 50 μM", "result": "essentially ablated"}, {"measurement": "MPO-mediated BSA nitration (in words)", "setting": "MPO; 250 μM KYC", "result": "essentially ablates"}]}
